# Results as given in patent US4910199A, “Imidazo[1,2-]pyridazines for cortical cholinergic deficiencies” (Sanofi, priority 1987, dated 1990).
# Assays:
# [1] = test system: rotatory behavior induced by intrastriatal pirenzepine; assay: antagonism of rotatory behavior induced by intrastriatal injection of pirenzepine in mice; type: in vivo, mouse (female, Swiss, CD 1); conditions: Mus musculus, ip; 50% reduction in number of rotations; i.p. 15 minutes before pirenzepine 1 μg into right striatum
# Description: The intrastriatal injection of PZ into mice induces rotatory behavior. The antagonism of this behavior by the products according to the invention was studied. The products according to the invention are injected intraperitoneally (i.p.) after solubilization in distilled water or suspension in a 5% solution of gum arabic. The control animals receive an injection of the pure solvent under the ssame conditions. The animals used are female mice (Swiss, CD 1, Charles River, France) with a body weight of between 25 and 30 grams. The pirenzepine is dissolved in a phosphate buffer and the pH of the solution is 6. The test products of their solvents are injected intraperitoneally in a volume of 0.4 ml per 20 g of body weight, 15 minutes before a direct injection of pirenzepine into the right striatum of the mouse at a dose of 1 μg in 1 μl of solvent, according to the method described by P. WORMS et al. in Eur. J. Pharmacol., 1986, 121, 395-401. The number of contralateral rotations (rotations in the opposite direction to the side injected) was counted for three 2-minute periods after injection of the pirenzepine: 2nd to 4th, 8th to 10th and 13th to 15th minutes. Each treatment consists of 3 to 4 doses with 10 animals per dose. The total number of rotations and the percentage antagonism with respect to the control group are calculated for each treatment. The 50% effective dose (ED50), i.e. the dose which causes a 50% reduction in the number of rotations induced by pirenzepine, is determined graphically for each product.
# [2] = biological target: T1, M2-type muscarinic cholinergic receptor (Cavia porcellus, UniProt H0VRN8); assay: affinity for the M2-type muscarinic cholinergic receptor ([3H]-N-methylscopolamine displacement, smooth guinea-pig ileum muscle homogenate); type: binding; conditions: [3H]-NMS 0.3 nM, 20 min at 30° C., pH 7.5
# T1 construct: on a smooth guinea-pig ileum muscle homogenate; from tissue; host or cells: guinea-pig ileum smooth muscle homogenate
# T1 sequence (H0VRN8 1-466): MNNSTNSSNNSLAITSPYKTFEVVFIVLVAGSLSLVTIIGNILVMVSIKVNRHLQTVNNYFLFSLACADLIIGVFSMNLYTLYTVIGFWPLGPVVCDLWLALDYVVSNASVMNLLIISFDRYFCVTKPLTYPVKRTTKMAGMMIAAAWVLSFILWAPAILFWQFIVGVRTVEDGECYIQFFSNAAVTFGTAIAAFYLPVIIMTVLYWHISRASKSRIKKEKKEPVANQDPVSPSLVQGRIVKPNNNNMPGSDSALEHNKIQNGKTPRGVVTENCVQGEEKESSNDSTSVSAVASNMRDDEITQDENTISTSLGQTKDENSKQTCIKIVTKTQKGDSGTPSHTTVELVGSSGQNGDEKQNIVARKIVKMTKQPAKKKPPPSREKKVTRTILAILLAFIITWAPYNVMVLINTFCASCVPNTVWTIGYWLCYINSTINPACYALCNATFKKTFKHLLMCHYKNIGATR
# Description: The M1 -type receptors are concentrated in certain regions of the brain, such as the hippocampus, the cerebral cortex and the striatum, and also in the sympathetic ganglia. These binding sites can be selectively labeled with [^3 H]-pirenzepine ([^3 H]-PZ). The M2 -type rreceptors predominate in the heart and the ileum and can be labeled with [^3 H]-N-methylscopolamine ([^3 H]-NMS). The selectivity of the compounds of the invention with respect to the M1 and M2 sites was determined by studying their in vitro interaction with [^3 H]-PZ and [^3 H]-NMS firmly bound with a high affinity to rat hippocampus membranes and smooth guinea-pig ileum muscle, respectively.
# The interaction with the M2 -type muscarinic receptors was studied by in vitro measurement, on a smooth guinea-pig ileum muscle homogenate, of the displacement of tritiated N-methylscopolamine ([^3 H]-NMS) from its specific binding sites. Aliquots (50 μl) of a 0.625% (w/v) smooth guinea-pig ileum muscle homogenate in HEPES buffer (20 mM) containing NaCl (100 mM) and MgCl2 (10 mM) (final pH: 7.5) are incubated for 20 min at 30° C. in the presence of [^3 H]-NMS ([…]; final concentration 0.3 nM) and increasing concentrations of the test products. The final volume is 1 ml. The reaction is topped by centrifugation for 5 min at 15 000×g. The non-specific binding is determined in the presence of 10 μM atropine sulfate. (Ref.: R. Hammer, C. P. Berrie, N. I. M. Birdsall, A. S. V. Burgen and E. C. Hulme, Nature, 283, 90-92, 1980; E. C. Hulme, N. I. M. Birdsall, A. S. V. Burgen and P. Mettha, Mol. Pharmacol., 14, 737-750, 1978.)
# Table 5 indicates the affinities of the products of the invention for the M1 and M2 receptors. The results are expressed as 50 percent inhibitory concentrations (IC50), i.e. the concentration (in μM) which induces the displacement of 50% of the tritiated ligand bound to the membrane receptors. The IC50 for ^3 H-pirenzepine displacement represents the affinity for the M1 receptor; The IC50 for ^3 H-NMS displacement represents the affinity for the M2 receptor.
# [3] = biological target: T2, M1-type muscarinic cholinergic receptor (Rattus norvegicus, UniProt P08482); assay: affinity for the M1-type muscarinic cholinergic receptor ([3H]-pirenzepine displacement, rat hippocampus homogenate); type: binding; conditions: for IC50: [3H]-PZ 1 nM, rat hippocampus homogenate, 2 h at 4° C., pH 7.40; for r = (M2/M1): ratio of the IC50 values for M2 (3H-NMS) and M1 (3H-pirenzepine), selectivity
# T2 sequence (P08482 1-460): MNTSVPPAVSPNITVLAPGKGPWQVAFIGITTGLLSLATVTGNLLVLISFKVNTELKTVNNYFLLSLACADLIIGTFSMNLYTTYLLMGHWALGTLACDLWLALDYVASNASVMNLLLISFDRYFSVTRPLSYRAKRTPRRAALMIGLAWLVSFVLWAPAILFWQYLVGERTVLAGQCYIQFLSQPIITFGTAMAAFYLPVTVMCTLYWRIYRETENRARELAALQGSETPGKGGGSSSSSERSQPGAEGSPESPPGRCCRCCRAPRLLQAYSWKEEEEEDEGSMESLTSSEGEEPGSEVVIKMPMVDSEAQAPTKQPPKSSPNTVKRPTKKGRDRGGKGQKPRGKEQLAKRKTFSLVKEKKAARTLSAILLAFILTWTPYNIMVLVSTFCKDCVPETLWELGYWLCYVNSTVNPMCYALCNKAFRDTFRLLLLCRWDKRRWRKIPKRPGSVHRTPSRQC
# Description: The interaction of the molecules with the M1 -type muscarinic receptors was studied by in vitro measurement, on a rat hippocampus homogenate, of the displacement of tritiated pirenzepine ([^3 H]-PZ) from its specific binding sites. Aliquots (10 μl) of a 5% (w/v) rat hippocampus homogenate in an Na2 HPO4 buffer (50 mM, pH 7.40) are incubated for 2 h at 4° C. in the presence of [^3 H]-PZ (76 Ci/nmol; final concentration 1 nM) and increasing concentrations of the test product. The final volume is 2 ml. The reaction is stopped by centrifugation for 10 min at 50 000×g. After decantation and washing of the residues, the bound radio-activity is counted by liquid scintillation. The non-specific binding is determined in the presence of 10 μM atropine sulfate. The 50% inhibitory concentration (IC50) is determined graphically.
IC50 [2] [µM],IC50 [3] [µM],r = (M2/M1) [3],SMILES,ED50 [1] [mg/kg]
–,–,–,c1ccc(-c2ccc3nc(CN4CCOCC4)cn3n2)cc1 [SR 95842 A],3
–,–,–,CN(C)Cc1cnc2ccc(-c3ccccc3)nn12 [SR 96070 A],3
–,–,–,Clc1ccc(-c2ccc3ncc(CN4CCOCC4)n3n2)cc1 [SR 96109 A],8
100,1.5,66,CCN(CC)Cc1cn2nc(-c3ccccc3)ccc2n1 [SR 96069 A],–
–,–,–,c1ccc(-c2cc(-c3ccccc3)c3ncc(CN4CCOCC4)n3n2)cc1 [SR 96111 A],7
–,–,–,c1ccc(-c2ccc3ncc(CN4CCOCC4)n3n2)cc1 [SR 96068 A],10
–,8,–,COc1cccc(-c2cc(C)c3ncc(CN4CCOCC4)n3n2)c1 [SR 96088 A],–
> 100,3,> 33,Clc1ccc(-c2ccc3nc(CN4CCOCC4)cn3n2)cc1 [SR 96089 A],–
65,0.4,162,CCN(CC)Cc1cn2nc(-c3cccc(OC)c3)cc(C)c2n1 [SR 96095 A],5

SMILES,IC50 [2] [µM],IC50 [3] [µM],r = (M2/M1) [3],ED50 [1] [mg/kg]
"CCN(CC)Cc1cn2nc(-c3ccccc3)cc(C)c2n1.Cl.Cl [SR 96052 A, 2-Diethylaminomethyl-8-methyl-6-phenylimidazo[1,2-b]pyridazine dihydrochloride]",65,0.5,130,8
"Cc1cc(-c2ccccc2)nn2c(CN3CCOCC3)cnc12.Cl.Cl [SR 95950 A, 8-Methyl-3-morpholinomethyl-6-phenylimidazo[1,2-b]pyridazine dihydrochloride]",> 100,1.4,> 71,5
